In PMC7027461 (Clinical Pharmacology in Drug Development, 2020):
Several values for one entry are separate records, joined by “and”; a condition that tells them apart may be missing. Equal values may be shown once. Entries after “also recorded” stand apart in the source; their conditions may differ. Read-outs that look alike come from different tables or passages of the source.

How the values were obtained:
[1] = parameters: method as in PMID 19738123; settings: uncoated tablet formulation; cited from earlier work
[2] = parameters: method as in ref 29 = [29]; 29 U.S. Food and Drug Administration . Application Number: 211349Orig1s000; Multi‐Discipline Review. https://www.accessdata.fda.gov/drugsatfda_docs/nda/2018/211349Orig1s000MultidisciplineR.pdf . Publi; settings: single 40‐mg tablet; cited from earlier work
[3] = parameters: method as in ref 23 = [23]; 23 U.S. Food and Drug Administration . Application Number: 207997Orig1s000; 207997Orig2s000. Clinical Pharmacology and Biopharmaceutics Review(s). Available at: https://www.accessdata.fda.gov/drugsatf; settings: single 50‐mg dose, cited from earlier work
[4] = Safety assessments (AEs, ECG/QTcF, vital signs, laboratory tests) in the food-effect study; type: in vivo, human
Protocol: All randomized subjects who received quizartinib were included in the safety analysis population. Safety assessments included physical examinations, vital signs, 12‐lead ECGs, adverse event (AE) evaluations, and clinical laboratory tests. Hematology, chemistry, serology, and urinalysis tests were performed by a local laboratory. AEs and laboratory tests were graded and summarized based on National Cancer Institute Common Terminology Criteria for Adverse Events version 4.03 and assessed for severity, relation to study drugs, and clinical significance.

cytochrome P450 3A = settings: cited from earlier work
[5] = BCS classification; no reference given; cited from earlier work
[6] = parameters: method as in data on file, Daiichi Sankyo, Inc; settings: subjects with AML; ref data on file, Daiichi Sankyo, Inc; cited from earlier work
[7] = prior knowledge used for the study design and sampling duration; no reference given; cited from earlier work
[8] = parameters: method as in data on file, Daiichi Sankyo, Inc; settings: ref data on file, Daiichi Sankyo, Inc; cited from earlier work

For `CC1(COc2ccc3c(c2)ncn3-c2ccc3cccc(N4CCC(N)CC4)c3n2)COC1` [crenolanib], the “effect of food on interpatient variability of Cmax and AUCinf” value [1] is listed as “increased”, the “effect of food on terminal half‐life” value [1] is listed as “no effects” and the “effect of food on tmax” value [1] is listed as “delays”.
In the case of `CCc1nc(C(N)=O)c(Nc2ccc(N3CCC(N4CCN(C)CC4)CC3)c(OC)c2)nc1NC1CCOCC1` [gilteritinib], the “decrease in AUC with a high‐fat meal vs the fasted state” value [2] is listed as less than 10%, the “decrease in Cmax with a high‐fat meal vs the fasted state” value [2] is listed as 26% and the “delay in median tmax with a high‐fat meal” value [2] is listed as 2 h.
For `CO[C@@H]1[C@H](N(C)C(=O)c2ccccc2)C[C@H]2O[C@]1(C)n1c3ccccc3c3c4c(c5c6ccccc6n2c5c31)C(=O)NC4` [midostaurin], the “increase in exposure with food” value ([3]; high‐fat meal (900–1000 calories, 50% fat content)) is given as 1.6 fold and the “increase in exposure with food” value ([3]; standard meal (450 calories, 25% fat content)) is given as 1.2 fold.
For `CC(C)(C)c1cc(NC(=O)Nc2ccc(-c3cn4c(n3)sc3cc(OCCN5CCOCC5)ccc34)cc2)no1.Cl.Cl` [quizartinib, N‐(5‐tert‐butyl‐isoxazol‐3‐yl)‐N′‐{4‐[7‐(2‐morpholin‐4‐yl‐ethoxy)imidazo[2,1‐b][1,3]benzothiazol‐2‐yl]phenyl}urea dihydrochloride], the tolerability ([4]; 30‐mg single dose, fed and fasted healthy subjects) was “safe and well tolerated”, the “subjects with maximum QTcF ≤450 milliseconds” value ([4]; all subjects (N = 64)) was 64 (100%) n (%) and the “subjects with maximum change from baseline QTcF ≤30 milliseconds” value ([4]; all subjects (N = 64)) was 98.4%. The “Number of TEAEs” value ([4]; fasted (n = 34)) was 16, the “Number of treatment‐related AEs” value ([4]; fasted (n = 34)) was 6 and the “Subjects with a treatment‐related AE, n (%)” value ([4]; fasted (n = 34)) was 4 (11.8%) n (%) and 4 (11.8) n (%). The “Subjects with any TEAE by maximum severity: Mild, n (%)” value (“Subjects with any TEAE … Mild, n (%)” for short) ([4]; fasted (n = 34)) was 7 (20.6) n (%), the “Subjects with any TEAE by maximum severity: Moderate, n (%)” value (shortened to “Subjects with any TEAE … Moderate, n (%)”) ([4]; fasted (n = 34)) was 1 (2.9) n (%) and the “Subjects with any TEAE by maximum severity: Severe, n (%)” value (“Subjects with any TEAE … Severe, n (%)” below) ([4]; fasted (n = 34)) was 1 (2.9) n (%). The “Subjects with a TEAE, n (%)” value ([4]; fasted (n = 34), single 30-mg dose) was 9 (26.5%) n (%) and 9 (26.5) n (%), the “Number of TEAEs” value ([4]; fed (n = 30)) was 7 and the “Number of treatment‐related AEs” value ([4]; fed (n = 30)) was 4. For the same compound, the “Subjects with a treatment‐related AE, n (%)” value ([4]; fed (n = 30)) was 2 (6.7%) n (%) and 2 (6.7) n (%), the “Subjects with any TEAE … Mild, n (%)” value ([4]; fed (n = 30)) was 5 (16.7) n (%) and the “Subjects with any TEAE … Moderate, n (%)” value ([4]; fed (n = 30)) was 0 n (%). The “Subjects with any TEAE … Severe, n (%)” value ([4]; fed (n = 30)) was 0 n (%), the “Subjects with a TEAE, n (%)” value ([4]; fed (n = 30), single 30-mg dose) was 5 (16.7%) n (%) and 5 (16.7) n (%) and the “Number of TEAEs” value ([4]; overall (N = 64)) was 23. For the same compound, the “Number of treatment‐related AEs” value ([4]; overall (N = 64)) was 10, the “Subjects with a treatment‐related AE, n (%)” value ([4]; overall (N = 64)) was 6 (9.4%) n (%) and 6 (9.4) n (%) and the “Subjects with any TEAE … Mild, n (%)” value ([4]; overall (N = 64)) was 12 (18.8) n (%). The “Subjects with any TEAE … Moderate, n (%)” value ([4]; overall (N = 64)) was 1 (1.6) n (%), the “Subjects with any TEAE … Severe, n (%)” value ([4]; overall (N = 64)) was 1 (1.6) n (%) and the “Subjects with a TEAE, n (%)” value ([4]; overall (N = 64), single 30-mg dose) was 14 (21.9) n (%). For the same compound, the “serious AEs or discontinuations due to AEs” value ([4]; single 30-mg dose, fed and fasted) was “no discontinuations due to adverse events occurred; also recorded: no serious AEs or discontinuations due to AEs”, the “subjects with maximum change from baseline QTcF >30 milliseconds and ≤60 milliseconds” value ([4]; subject in the fasted group, percentage of N = 64) was 1 (1.6%) n (%) and the “cytochrome P450 3A substrate status” value (cytochrome P450 3A) was “substrate”. The permeability [5] was “low”, the solubility [5] was “low” and the “effective half‐life” value [6] was 73 h. For the same compound, the “terminal elimination half‐life (t1/2)” value [7] was “approximately 100 hours” and the Plasma protein binding [8] was greater than 99%.
